This note sets out measurements from US20100216761A1, “NOVEL AZETIDINONES USEFUL AS INHIBITORS OF ELASTASE” (priority 2007, published 2010).

Usually kinact/KI stands for the maximal inactivation rate divided by the concentration that gives half of it.

In experiment [1] the target is T1, Human Leukocyte Elastase (HLE) (Homo sapiens, UniProt P08246).
T1 construct: The PMN lysates were prepared by isolating human neutrophils from whole blood; from tissue; host or cells: human neutrophils (PMN) isolated from whole blood, lysed by sonication in PBS
T1 sequence (P08246 30-267): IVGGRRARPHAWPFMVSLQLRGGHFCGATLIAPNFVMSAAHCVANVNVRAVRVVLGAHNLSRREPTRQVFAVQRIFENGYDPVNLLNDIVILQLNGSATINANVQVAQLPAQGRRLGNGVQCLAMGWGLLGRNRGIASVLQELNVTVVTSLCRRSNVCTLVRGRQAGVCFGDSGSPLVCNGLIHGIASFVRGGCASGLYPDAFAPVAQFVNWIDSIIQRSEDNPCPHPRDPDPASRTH
Kind of experiment: HLE time-dependent reactivation (off-rate) assay. The class given is biochemical. The note with it: head-to-head with Examples 1 and 3. How it is done: An important and desirable aspect of these mechanism-based HLE inhibitors is also the extent to which the enzyme remains inactivated or, in other words, the rate at which the modified inhibitor comes off the enzyme after the inactivation event has occurred and which then gives back the active HLE enzyme (see Note 2c and 4). This property was assessed in a time-dependent reactivation assay and the results were calculated as a first-order rate constant expressed as their half-lives in hours (t1/2). […] Under head-to-head conditions (n=2) with Examples 1 and 3, the off-rate for the comparator Compound #290 of U.S. Pat. No. 5,591,737 was determined to be 7.1 hrs, or about 2.5-2.6 times as fast.
Elastase was incubated with 100-fold molar excess of inhibitor in TES buffer (0.045M TES, 0.45M NaCl, pH 7.5, 0.1% BSA) at room temperature for 60 minutes. After the incubation was complete, the samples were loaded onto prepared columns (Micro BioSpin Chromatography Columns-Bio-Gel P-6 Columns Bio-Rad Cat# 732-6221; prepared as directed by the manufacturer). […] At specific time points, the filtrate was monitored for elastase activity by adding the filtrate to 1 mM substrate (MeoSucc-AAPV-pNA; Elastin Products Cat# FH237) in TES buffer (0.045M TES, 0.45M NaCl, pH 7.5) and measuring the absorbance at 410 nm. The absorbance was monitored every 10 seconds for 5 minutes. […]

Experiment [2] addresses T1, Human Leukocyte Elastase (HLE). As to the kind of experiment: HLE time-dependent inactivation assay, PMN cell lysate source of HLE. The note with it: 3 nM, inhibitor 26.5 nM, substrate 1 mM. The class given is biochemical. How it is done: As exemplified in Table 1, the Examples 1-6 of this application were determined to be potent, mechanism-based inactivators of Human Leukocyte Elastase (HLE) in two different in vitro time-dependent incubation assays. The two assays are described at the end of this Biological Data Section in Note 1. See the literature references in Note 2 for a discussion of the mechanism for this type of beta-lactam inactivation of HLE. Two sources of enzyme were used; either purified elastase or crude extracts of human polymorphonuclear leukocytes (PMN) containing elastase activity. […] For the compound of Example 1, the results were 638,000 M^−1 sec^−1 (average of n=3) and 809,000 M^−1 sec^−1 (n=4), respectively, and for Example 3, 804,000 M^−1 sec^−1 (average of n=4) and 952,000 M^−1 sec^−1 (n=5). […] Note that in this assay, head-to-head comparisons are particularly valuable.
Note 1: Enzyme Assays for the Inhibition of Human Polymorphonuclear Leukocyte Elastase Via Hydrolysis of N-Methyoxysuccinyl-alanyl-alanyl-prolylalanine-p-nitroanilide Reagent.
Prepare substrate by first dissolving in DMSO to 30 mg/ml (50 mM). Further dilute the substrate to 10 mM and add 25 μl to a final volume of 250 μl for a final concentration of 1 mM in the assay.
Prepare the enzyme in TES Buffer (0.045M TES (N-tris[hydroxymethyl]methyl-2-mino-ethanesulfonic acid), 0.45 M NaCl, pH 7.5.). Two sources of enzyme were used; either crude extracts of human polymorphonuclear leukocytes (PMN) containing elastase activity or purified elastase. The PMN lysates were prepared by isolating human neutrophils from whole blood after dextran sedimentation, ficoll density separation and red blood cell lysis. The neutrophils were lysed in PBS with sonciation and the concentration of active enzyme was determined by utilizing a standard curve of purified enzyme. For the purified elastase, the enzyme was resuspended at 10 mg/ml (˜340 μM) in 0.02M NaOAc, 50% glycerol. For both the PMN lysate and purified enzyme, a further dilution of enzyme was made to 30 nM and 25 μl was added to a final volume of 250 μl. The final concentration of enzyme in the assay was 3 nM.
The inhibitors to be tested were dissolved in DMSO at 10 mM. Directly before use, the inhibitors were further diluted into TES Buffer to 265 nM and […] was added to a final volume of 250 μl. The final concentration of inhibitor in the assay was 26.5 nM.
In a 96-well plate (flat bottom, polystyrene) 175 μl TES Buffer, 25 μl substrate, 25 μl inhibitor and 25 μl enzyme were added. After thoroughly mixing, the plate was then read in a spectrophotometer at 410 nm for 30 minutes counting every 10 seconds. Results were expressed as Kinact/Ki which is the second order rate constant in per mole per second for inactivation of the enzyme.

On to `CCC[C@@H](NC(=O)N1C(=O)C(CC)(CC)[C@@H]1Oc1ccc(C(=O)N(C)CCN(C)C)cc1)c1ccc(OC)cc1` [Compound #290, reference compound], for which the “off-rate relative to Examples 1 and 3 (times as fast)” value in experiment [1] was 2.5-2.6 times.
For the compound `CCC[C@@H](NC(=O)N1C(=O)C(CC)(CC)[C@@H]1Oc1ccc(C(=O)N(CC)CCN(C)C)cc1)c1ccc(OC(F)(F)F)cc1` [Example 1, 2-(S)-[4-(((2-(Dimethylamino)ethyl)ethylamino)carbonyl)phenoxy]-3,3-diethyl-N-[1-(R)-(4-(trifluoromethoxy)phenyl)butyl]-4-oxo-1-azetidinecarboxamide], the kinact/KI in experiment [2] amounted to 809000 M⁻¹ s⁻¹.
In the case of `CCC[C@@H](NC(=O)N1C(=O)C(CC)(CC)[C@@H]1Oc1ccc(C(=O)N(CC)CCN(C)C)cc1)c1ccc(C(F)(F)F)cc1` [Example 3, 2-(S)-[4-(((2-(Dimethylamino)ethyl)ethylamino)carbonyl)phenoxy]-3,3-diethyl-N-[1-(R)-(4-(trifluoromethyl)phenyl)butyl]-4-oxo-1-azetidinecarboxamide], the kinact/KI in experiment [2] worked out at 952000 M⁻¹ s⁻¹.
